Assay [1] has as its target Human β2 adrenoceptor (Homo sapiens, UniProt P07550). Conditions: read-out: B2 binding affinity.
Assay [2] has as its target Human M3 receptor (Homo sapiens, UniProt P20309). The following applies: read-out: M3 binding affinity.

Molecules are shown by their SMILES. Values joined by “and” are separate entries in the source; they are usually repeats but may differ in a detail not shown here. Identical values can stand only once. Bounds are passed on as bounds.

Chain of Human M3 receptor (P20309 whole entry): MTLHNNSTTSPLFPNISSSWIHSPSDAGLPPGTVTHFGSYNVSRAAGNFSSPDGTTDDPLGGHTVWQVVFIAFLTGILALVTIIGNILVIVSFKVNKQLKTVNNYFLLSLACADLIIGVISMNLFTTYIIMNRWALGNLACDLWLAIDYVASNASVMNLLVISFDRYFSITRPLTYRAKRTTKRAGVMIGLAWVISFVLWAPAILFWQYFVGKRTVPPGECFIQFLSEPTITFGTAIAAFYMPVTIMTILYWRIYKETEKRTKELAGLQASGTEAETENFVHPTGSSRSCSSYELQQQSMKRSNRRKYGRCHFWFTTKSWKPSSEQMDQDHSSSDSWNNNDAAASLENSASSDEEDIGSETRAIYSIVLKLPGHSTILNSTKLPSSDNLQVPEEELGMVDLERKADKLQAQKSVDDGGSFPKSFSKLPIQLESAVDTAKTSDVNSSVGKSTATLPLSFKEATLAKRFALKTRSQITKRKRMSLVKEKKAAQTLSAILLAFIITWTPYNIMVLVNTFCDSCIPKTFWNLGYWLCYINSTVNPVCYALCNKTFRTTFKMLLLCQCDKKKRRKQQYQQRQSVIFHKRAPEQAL
Chain of Human β2 adrenoceptor (P07550 whole entry): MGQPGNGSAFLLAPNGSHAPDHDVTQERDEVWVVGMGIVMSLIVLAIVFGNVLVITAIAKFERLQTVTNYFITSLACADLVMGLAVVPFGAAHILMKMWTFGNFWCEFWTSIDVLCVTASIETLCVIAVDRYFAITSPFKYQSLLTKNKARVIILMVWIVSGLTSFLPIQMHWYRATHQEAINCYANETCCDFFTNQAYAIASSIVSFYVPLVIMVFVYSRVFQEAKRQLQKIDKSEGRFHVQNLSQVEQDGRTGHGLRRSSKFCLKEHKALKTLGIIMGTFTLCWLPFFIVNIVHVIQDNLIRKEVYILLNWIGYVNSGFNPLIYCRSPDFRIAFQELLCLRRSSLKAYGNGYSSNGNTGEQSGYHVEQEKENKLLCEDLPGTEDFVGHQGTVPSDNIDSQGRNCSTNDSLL

For the compound `O=C(N[C@@H]1CCCN(C(=O)COc2cccc([C@](O)(C(=O)OCC3CCN(Cc4ccccc4)CC3)c3ccccc3)c2)C1)c1ccc(CNC[C@H](O)c2ccc(O)c3[nH]c(=O)ccc23)cc1` [Compound 75, (1-benzylpiperidin-4-yl)methyl (S)-2-hydroxy-2-(3-(2-((R)-3-(4-((((R)-2-hydroxy-2-(8-hydroxy-2-oxo-1,2-dihydroquinolin-5-yl)ethyl)amino)methyl)benzamido)piperidin-1-yl)-2-oxoethoxy)phenyl)-2-phenylacetate], the IC50 was over 3 nM in assay [1] and 0.3 to 3 nM in assay [2].

In the case of `O=C(COc1cccc([C@](O)(C(=O)OCC2CCN(Cc3ccccc3)CC2)c2ccccc2)c1)NCCCNC(=O)c1ccc(CCNC[C@H](O)c2ccc(O)c3[nH]c(=O)ccc23)cc1` [Compound 85, (1-benzylpiperidin-4-yl)methyl (S)-2-hydroxy-2-(3-(2-((3-(4-(2-(((R)-2-hydroxy-2-(8-hydroxy-2-oxo-1,2-dihydroquinolin-5-yl)ethyl)amino)ethyl)benzamido)propyl)amino)-2-oxoethoxy)phenyl)-2-phenylacetate], the IC50 in assay [1] was under 0.3 nM; in assay [2] it was 0.3 to 3 nM.

In the case of `O=C(c1cccc(COc2cccc([C@](O)(C(=O)OCC3CCN(Cc4ccccc4)CC3)c3ccccc3)c2)c1)N(CCCNC[C@H](O)c1ccc(O)c2[nH]c(=O)ccc12)Cc1ccccc1` [Compound 45, (S)-(1-Benzylpiperidin-4-yl)methyl 2-(3-((3-(benzyl(3-(((R)-2-hydroxy-2-(8-hydroxy-2-oxo-1,2-dihydroquinolin-5-yl)ethyl)amino)propyl)carbamoyl)benzyl)oxy)phenyl)-2-hydroxy-2-phenylacetate], the IC50 in assay [1] and in assay [2] was 0.3 to 3 nM throughout.

As to `O=C(COc1cccc([C@](O)(C(=O)OCC2CCN(Cc3ccccc3)CC2)c2ccccc2)c1)N[C@H]1C[C@H](NC(=O)c2ccc(CNC[C@H](O)c3ccc(O)c4[nH]c(=O)ccc34)cc2Br)C1` [Compound 136, (1-benzylpiperidin-4-yl)methyl (S)-2-(3-(2-(((1R,3S)-3-(2-bromo-4-((((R)-2-hydroxy-2-(8-hydroxy-2-oxo-1,2-dihydroquinolin-5-yl)ethyl)amino)methyl)benzamido)cyclobutyl)amino)-2-oxoethoxy)phenyl)-2-hydroxy-2-phenylacetate], the IC50 in assay [1] is under 0.3 nM; in assay [2] it was 0.3 to 3 nM.

As to `O=C(COc1cccc([C@](O)(C(=O)OCC2CCN(Cc3ccccc3)CC2)c2ccccc2)c1)N[C@@H]1CCN(C(=O)c2ccc(CCNC[C@H](O)c3ccc(O)c4[nH]c(=O)ccc34)cc2)C1` [Compound 104, (1-benzylpiperidin-4-yl)methyl (S)-2-hydroxy-2-(3-(2-(((R)-1-(4-(2-(((R)-2-hydroxy-2-(8-hydroxy-2-oxo-1,2-dihydroquinolin-5-yl)ethyl)amino)ethyl)benzoyl)pyrrolidin-3-yl)amino)-2-oxoethoxy)phenyl)-2-phenylacetate], the results for the IC50 in assay [1] and in assay [2] were 0.3 to 3 nM and under 0.3 nM, respectively.

In the case of `O=C(c1ccc(CCNC[C@H](O)c2ccc(O)c3[nH]c(=O)ccc23)cc1)N1CCC(C(=O)N2CCC(COc3cccc([C@](O)(C(=O)OCC4CCN(Cc5ccccc5)CC4)c4ccccc4)c3)CC2)CC1` [Compound 151, (1-Benzylpiperidin-4-yl)methyl (S)-2-hydroxy-2-(3-((1-(1-(4-(2-(((R)-2-hydroxy-2-(8-hydroxy-2-oxo-1,2-dihydroquinolin-5-yl)ethyl)amino)ethyl)benzoyl)piperidine-4-carbonyl)piperidin-4-yl)methoxy)phenyl)-2-phenylacetate], the IC50 in assay [1] and in assay [2] was under 0.3 nM throughout.

As for `COc1cc(C(=O)NCCCOc2cccc([C@](O)(C(=O)OCC3CCN(Cc4ccccc4)CC3)c3ccccc3)c2)ccc1CNC[C@H](O)c1ccc(O)c2[nH]c(=O)ccc12` [Compound 32A, (S)-(1-benzylpiperidin-4-yl)methyl 2-hydroxy-2-(3-(3-(4-((((R)-2-hydroxy-2-(8-hydroxy-2-oxo-1,2-dihydroquinolin-5-yl)ethyl)amino)methyl)-3-methoxybenzamido)propoxy)phenyl)-2-phenylacetate], the IC50 was under 0.3 nM in assay [1] and 0.3 to 3 nM in assay [2].

On to `O=C(COc1cccc([C@](O)(C(=O)OCC2CCN(Cc3ccccc3)CC2)c2ccccc2)c1)NC1CCN(C(=O)c2ccc(CCNC[C@H](O)c3ccc(O)c4[nH]c(=O)ccc34)cc2)CC1` [Compound 91, (1-benzylpiperidin-4-yl)methyl (S)-2-hydroxy-2-(3-(2-((1-(4-(2-(((R)-2-hydroxy-2-(8-hydroxy-2-oxo-1,2-dihydroquinolin-5-yl)ethyl)amino)ethyl)benzoyl)piperidin-4-yl)amino)-2-oxoethoxy)phenyl)-2-phenylacetate], for which the IC50 was under 0.3 nM in assay [1] and 0.3 to 3 nM in assay [2].

`COc1cc(C(=O)N2CC(NC(=O)COc3cccc([C@](O)(C(=O)OCC4CCN(Cc5ccccc5)CC4)c4ccccc4)c3)C2)ccc1CNC[C@H](O)c1ccc(O)c2[nH]c(=O)ccc12` [Compound 78, (1-benzylpiperidin-4-yl)methyl (S)-2-hydroxy-2-(3-(2-((1-(4-((((R)-2-hydroxy-2-(8-hydroxy-2-oxo-1,2-dihydroquinolin-5-yl)ethyl)amino)methyl)-3-methoxybenzoyl)azetidin-3-yl)amino)-2-oxoethoxy)phenyl)-2-phenylacetate]: the IC50 in assay [1] and in assay [2] was under 0.3 nM in each case.

For the compound `O=C(COc1cccc([C@](O)(C(=O)OCC2CCN(Cc3ccccc3)CC2)c2ccccc2)c1)N1CC2(CCN(C(=O)c3ccc(CCNC[C@H](O)c4ccc(O)c5[nH]c(=O)ccc45)cc3)CC2)C1` [Compound 94, (1-benzylpiperidin-4-yl)methyl (S)-2-hydroxy-2-(3-(2-(7-(4-(2-(((R)-2-hydroxy-2-(8-hydroxy-2-oxo-1,2-dihydroquinolin-5-yl)ethyl)amino)ethyl)benzoyl)-2,7-diazaspiro[3.5]nonan-2-yl)-2-oxoethoxy)phenyl)-2-phenylacetate], the IC50 in assay [1] and in assay [2] was under 0.3 nM each time.

Turning to `O=C(NC1CN(C(=O)COc2cccc([C@](O)(C(=O)OCC3CCN(Cc4ccccc4)CC3)c3ccccc3)c2)C1)c1ccc(CCNC[C@H](O)c2ccc(O)c3[nH]c(=O)ccc23)cc1` [Compound 102, (1-benzylpiperidin-4-yl)methyl (S)-2-hydroxy-2-(3-(2-(3-(4-(2-(((R)-2-hydroxy-2-(8-hydroxy-2-oxo-1,2-dihydroquinolin-5-yl)ethyl)amino)ethyl)benzamido)azetidin-1-yl)-2-oxoethoxy)phenyl)-2-phenylacetate], the IC50 in assay [1] and in assay [2] was under 0.3 nM each time.

For the compound `CCOc1cc(C(=O)N[C@H]2C[C@H](NC(=O)COc3cccc([C@](O)(C(=O)OCC4CCN(Cc5ccccc5)CC4)c4ccccc4)c3)C2)ccc1CNC[C@H](O)c1ccc(O)c2[nH]c(=O)ccc12` [Compound 140, (1-benzylpiperidin-4-yl)methyl (S)-2-(3-(2-(((1R,3S)-3-(3-ethoxy-4-((((R)-2-hydroxy-2-(8-hydroxy-2-oxo-1,2-dihydroquinolin-5-yl)ethyl)amino)methyl)benzamido)cyclobutyl)amino)-2-oxoethoxy)phenyl)-2-hydroxy-2-phenylacetate], the IC50 in assay [1] and in assay [2] was 0.3 to 3 nM each time.

As for `O=C(c1ccc(CCNC[C@H](O)c2ccc(O)c3[nH]c(=O)ccc23)cc1)N1CCC2(CC1)CN(C(=O)c1ccc(COc3cccc([C@](O)(C(=O)OCC4CCN(Cc5ccccc5)CC4)c4ccccc4)c3)cc1)C2` [Compound 117, (1-benzylpiperidin-4-yl)methyl (S)-2-hydroxy-2-(3-((4-(7-(4-(2-(((R)-2-hydroxy-2-(8-hydroxy-2-oxo-1,2-dihydroquinolin-5-yl)ethyl)amino)ethyl)benzoyl)-2,7-diazaspiro[3.5]nonane-2-carbonyl)benzyl)oxy)phenyl)-2-phenylacetate], the IC50 in assay [1] is under 0.3 nM; in assay [2], 0.3 to 3 nM.

Take `COc1cc(NC(=O)COc2cccc([C@](O)(C(=O)OCC3CCN(Cc4ccccc4)CC3)c3ccccc3)c2)c(F)cc1CNC[C@H](O)c1ccc(O)c2[nH]c(=O)ccc12` [Compound 42B, (1-benzylpiperidin-4-yl)methyl (S)-2-(3-(2-((2-fluoro-4-((((R)-2-hydroxy-2-(8-hydroxy-2-oxo-1,2-dihydroquinolin-5-yl)ethyl)amino)methyl)-5-methoxyphenyl)amino)-2-oxoethoxy)phenyl)-2-hydroxy-2-phenylacetate]: the IC50 in assay [1] was under 0.3 nM; in assay [2], < 0.3 nM and 0.3 to 3 nM.

On to `O=C(NCc1ccc(COc2ccc(C(O)(C(=O)OCC3CCN(Cc4ccccc4)CC3)c3ccccc3)cc2)cc1)c1ccc(CNC[C@H](O)c2ccc(O)c3[nH]c(=O)ccc23)cc1` (stereo partly drawn) [Compound 53, (1-benzylpiperidin-4-yl)methyl 2-hydroxy-2-(4-((4-((4-((((R)-2-hydroxy-2-(8-hydroxy-2-oxo-1,2-dihydroquinolin-5-yl)ethyl)amino)methyl)benzamido)methyl)-benzyl)oxy)phenyl)-2-phenylacetate diformate], for which the IC50 in assay [1] and in assay [2] was over 3 nM each time.

On to `COc1cc(C(=O)NCCCOc2cccc([C@](O)(C(=O)OCC3CCN(Cc4ccccc4)CC3)c3ccccc3)c2)c(Cl)cc1CNC[C@H](O)c1ccc(O)c2[nH]c(=O)ccc12` [Compound 32J, (S)-(1-benzylpiperidin-4-yl)methyl 2-(3-(3-(2-chloro-4-((((R)-2-hydroxy-2-(8-hydroxy-2-oxo-1,2-dihydroquinolin-5-yl)ethyl)amino)methyl)-5-methoxybenzamido)propoxy)phenyl)-2-hydroxy-2-phenylacetate], for which the IC50 in assay [1] is under 0.3 nM; in assay [2], 0.3 to 3 nM.

In the case of `O=C(COc1cccc([C@](O)(C(=O)OCC2CCN(Cc3ccccc3)CC2)c2ccccc2)c1)N[C@H]1C[C@H](NC(=O)c2ccc(CNC[C@H](O)c3ccc(O)c4[nH]c(=O)ccc34)cn2)C1` [Compound 144, (1-benzylpiperidin-4-yl)methyl (S)-2-hydroxy-2-(3-(2-(((1R,3S)-3-(5-((((R)-2-hydroxy-2-(8-hydroxy-2-oxo-1,2-dihydroquinolin-5-yl)ethyl)amino)methyl)picolinamido)cyclobutyl)amino)-2-oxoethoxy)phenyl)-2-phenylacetate], the figures for the IC50 in assay [1] and in assay [2] were under 0.3 nM and 0.3 to 3 nM, respectively.

The record behind these values is patent US9579314B2 (priority 2015, dated 2017).
